Laboratory results from patent US20230085307A1, “PYRIDAZINONE COMPOUND AND HERBICIDE” (NISSAN CHEMICAL CORPORATION, priority 2019, published 2023).

Experiments:
wild oat [1] = assay: Test Example 4: herbicidal effect by soil treatment (Table 19, symbol I); type: in vivo, wild oat (Avena fatua)
Method in brief: (§1)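 Step 1: sow seeds in sterilized diluvial soil, cover ~1.5 cm. Step 2: spray diluted emulsion onto soil surface at predetermined rate. Step 3: greenhouse, 25–30° C, three weeks. Step 4: grade effect on each plant by earlier criteria.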

Chinese sprangletop = assay: Test Example 3: herbicidal effect by foliage application, Wagner pot (Table 18, symbol D); type: in vivo, chinese sprangletop (Leptochloa chinensis)
Method in brief: (§2)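 Plants were sown in alluvial soil held under 0.1–0.5 cm standing water and grown 14 days in a greenhouse at 25–30 °C. An emulsifiable formulation, water-diluted to the set dose, was then sprayed onto the foliage, and effects were scored three weeks later using previously defined criteria.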

barnyard grass [2] = assay: Test Example 4: herbicidal effect by soil treatment (Table 19, symbol H); type: in vivo, barnyard grass (Echinochloa crus-galli)
Method in brief: as §1

velvetleaf [3] = assay: Test Example 5: herbicidal effect by foliage application, plastic box (Table 20, symbol M); type: in vivo, velvetleaf (Abutilon theophrasti); details: foliage application, evaluated three weeks after application
Method in brief: (§3)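 Foliar spray test: emulsion formulation diluted in water to a set application rate, sprayed onto 14-day-old plants raised in diluvial soil at 25° C to 30° C under glass. Both herbicidal effect and crop effect rated visually three weeks later.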

windgrass [4] = assay: Test Example 4: herbicidal effect by soil treatment (Table 19, symbol L); type: in vivo, windgrass (Apera spica-venti)
Method in brief: as §1

barnyard grass [5] = assay: Test Example 5: herbicidal effect by foliage application, plastic box (Table 20, symbol H); type: in vivo, barnyard grass (Echinochloa crus-galli); details: foliage application, evaluated three weeks after application
Method in brief: as §3

green foxtail [6] = assay: Test Example 5: herbicidal effect by foliage application, plastic box (Table 20, symbol G); type: in vivo, green foxtail (Setaria viridis); details: foliage application, evaluated three weeks after application
Method in brief: as §3

persian speedwell [7] = assay: Test Example 4: herbicidal effect by soil treatment (Table 19, symbol R); type: in vivo, Persian speedwell (Veronica persica)
Method in brief: as §1

persian speedwell [8] = assay: Test Example 5: herbicidal effect by foliage application, plastic box (Table 20, symbol R); type: in vivo, Persian speedwell (Veronica persica); details: foliage application, evaluated three weeks after application
Method in brief: as §3

Italian ryegrass [9] = assay: Test Example 5: herbicidal effect by foliage application, plastic box (Table 20, symbol K); type: in vivo, Italian ryegrass (Lolium multiflorum); details: foliage application, evaluated three weeks after application
Method in brief: as §3

barnyard grass [10] = assay: Test Example 3: herbicidal effect by foliage application, Wagner pot (Table 18, symbol H); type: in vivo, barnyard grass (Echinochloa crus-galli)
Method in brief: as §2

chickweed [11] = assay: Test Example 5: herbicidal effect by foliage application, plastic box (Table 20, symbol P); type: in vivo, common chickweed (Stellaria media); details: foliage application, evaluated three weeks after application
Method in brief: as §3

blackgrass [12] = assay: Test Example 4: herbicidal effect by soil treatment (Table 19, symbol J); type: in vivo, blackgrass (Alopecurus myosuroides)
Method in brief: as §1

southern crabgrass [13] = assay: Test Example 5: herbicidal effect by foliage application, plastic box (Table 20, symbol F); type: in vivo, southern crabgrass (Digitaria ciliaris); details: foliage application, evaluated three weeks after application
Method in brief: as §3

chickweed [14] = assay: Test Example 4: herbicidal effect by soil treatment (Table 19, symbol P); type: in vivo, common chickweed (Stellaria media)
Method in brief: as §1

green foxtail [15] = assay: Test Example 4: herbicidal effect by soil treatment (Table 19, symbol G); type: in vivo, green foxtail (Setaria viridis)
Method in brief: as §1

windgrass [16] = assay: Test Example 5: herbicidal effect by foliage application, plastic box (Table 20, symbol L); type: in vivo, windgrass (Apera spica-venti); details: foliage application, evaluated three weeks after application
Method in brief: as §3

lambsquarters [17] = assay: Test Example 4: herbicidal effect by soil treatment (Table 19, symbol O); type: in vivo, lambsquarters (Chenopodium album)
Method in brief: as §1

lambsquarters [18] = assay: Test Example 5: herbicidal effect by foliage application, plastic box (Table 20, symbol O); type: in vivo, lambsquarters (Chenopodium album); details: foliage application, evaluated three weeks after application
Method in brief: as §3

velvetleaf [19] = assay: Test Example 4: herbicidal effect by soil treatment (Table 19, symbol M); type: in vivo, velvetleaf (Abutilon theophrasti)
Method in brief: as §1

blackgrass [20] = assay: Test Example 5: herbicidal effect by foliage application, plastic box (Table 20, symbol J); type: in vivo, blackgrass (Alopecurus myosuroides); details: foliage application, evaluated three weeks after application
Method in brief: as §3

rice flat sedge = assay: Test Example 3: herbicidal effect by foliage application, Wagner pot (Table 18, symbol E); type: in vivo, rice flat sedge (Cyperus iria)
Method in brief: as §2

redroot pigweed [21] = assay: Test Example 4: herbicidal effect by soil treatment (Table 19, symbol N); type: in vivo, redroot pigweed (Amaranthus retroflexus)
Method in brief: as §1

southern crabgrass [22] = assay: Test Example 4: herbicidal effect by soil treatment (Table 19, symbol F); type: in vivo, southern crabgrass (Digitaria ciliaris)
Method in brief: as §1

wild oat [23] = assay: Test Example 5: herbicidal effect by foliage application, plastic box (Table 20, symbol I); type: in vivo, wild oat (Avena fatua); details: foliage application, evaluated three weeks after application
Method in brief: as §3

redroot pigweed [24] = assay: Test Example 5: herbicidal effect by foliage application, plastic box (Table 20, symbol N); type: in vivo, redroot pigweed (Amaranthus retroflexus); details: foliage application, evaluated three weeks after application
Method in brief: as §3

Italian ryegrass [25] = assay: Test Example 4: herbicidal effect by soil treatment (Table 19, symbol K); type: in vivo, Italian ryegrass (Lolium multiflorum)
Method in brief: as §1

[26] = amount of applied herbicide 320 g/ha

## Cc1nn(C)c(=O)c(-c2c(-c3ccc(OC(F)F)cc3)sc3ccc(F)cc23)c1OCC#N [2-303]
Wild oat [1]; [26]
  herbicidal effect on I: wild oat: 0 (Herbicidal rate of 5% or less (almost no effect))
Chinese sprangletop; [26]
  herbicidal effect on D: Chinese sprangletop: 4 (Herbicidal rate of 70% or more and less than 90%)
Barnyard grass [2]; [26]
  herbicidal effect on H: barnyard grass: 0 (Herbicidal rate of 5% or less (almost no effect))
Velvetleaf [3]; AAH 320 g/ha
  M: velvetleaf, herbicidal effect (criteria 0-5): 5 (Herbicidal rate of 90% or more (almost completely withered))
Windgrass [4]; [26]
  herbicidal effect on L: windgrass: 0 (Herbicidal rate of 5% or less (almost no effect))
Barnyard grass [5]; AAH 320 g/ha
  H: barnyard grass, herbicidal effect (criteria 0-5): 4 (Herbicidal rate of 70% or more and less than 90%)
Green foxtail [6]; AAH 320 g/ha
  G: green foxtail, herbicidal effect (criteria 0-5): 5 (Herbicidal rate of 90% or more (almost completely withered))
Persian speedwell [7]; [26]
  herbicidal effect on R: persian speedwell: 4 (Herbicidal rate of 70% or more and less than 90%)
Persian speedwell [8]; AAH 320 g/ha
  R: persian speedwell, herbicidal effect (criteria 0-5): 5 (Herbicidal rate of 90% or more (almost completely withered))
Italian ryegrass [9]; AAH 320 g/ha
  K: Italian ryegrass, herbicidal effect (criteria 0-5): 3 (Herbicidal rate of 40% or more and less than 70%)
Barnyard grass [10]; [26]
  herbicidal effect on H: barnyard grass: 5 (Herbicidal rate of 90% or more (almost completely withered))
Chickweed [11]; AAH 320 g/ha
  P: chickweed, herbicidal effect (criteria 0-5): 5 (Herbicidal rate of 90% or more (almost completely withered))
Blackgrass [12]; [26]
  herbicidal effect on J: blackgrass: 0 (Herbicidal rate of 5% or less (almost no effect))
Southern crabgrass [13]; AAH 320 g/ha
  F: southern crabgrass, herbicidal effect (criteria 0-5): 0 (Herbicidal rate of 5% or less (almost no effect))
Chickweed [14]; [26]
  herbicidal effect on P: chickweed: 3 (Herbicidal rate of 40% or more and less than 70%)
Green foxtail [15]; [26]
  herbicidal effect on G: green foxtail: 0 (Herbicidal rate of 5% or less (almost no effect))
Windgrass [16]; AAH 320 g/ha
  L: windgrass, herbicidal effect (criteria 0-5): 0 (Herbicidal rate of 5% or less (almost no effect))
Lambsquarters [17]; [26]
  herbicidal effect on O: lambsquarters: 0 (Herbicidal rate of 5% or less (almost no effect))
Lambsquarters [18]; AAH 320 g/ha
  O: lambsquarters, herbicidal effect (criteria 0-5): 5 (Herbicidal rate of 90% or more (almost completely withered))
Velvetleaf [19]; [26]
  herbicidal effect on M: velvetleaf: 0 (Herbicidal rate of 5% or less (almost no effect))
Blackgrass [20]; AAH 320 g/ha
  J: blackgrass, herbicidal effect (criteria 0-5): 0 (Herbicidal rate of 5% or less (almost no effect))
Rice flat sedge; [26]
  herbicidal effect on E: rice flat sedge: 3 (Herbicidal rate of 40% or more and less than 70%)
Redroot pigweed [21]; [26]
  herbicidal effect on N: redroot pigweed: 0 (Herbicidal rate of 5% or less (almost no effect))
Southern crabgrass [22]; [26]
  herbicidal effect on F: southern crabgrass: 0 (Herbicidal rate of 5% or less (almost no effect))
Wild oat [23]; AAH 320 g/ha
  I: wild oat, herbicidal effect (criteria 0-5): 0 (Herbicidal rate of 5% or less (almost no effect))
Redroot pigweed [24]; AAH 320 g/ha
  N: redroot pigweed, herbicidal effect (criteria 0-5): 5 (Herbicidal rate of 90% or more (almost completely withered))
Italian ryegrass [25]; [26]
  herbicidal effect on K: Italian ryegrass: 0 (Herbicidal rate of 5% or less (almost no effect))

## Cc1nn(C)c(=O)c(-c2c(-c3ccc(Cl)cc3)sc3ccc(Cl)cc23)c1O [2-099]
Wild oat [1]; 320 g/ha
  herbicidal effect rating, I: wild oat: 0 (Herbicidal rate of 5% or less (almost no effect))
Chinese sprangletop; 320 g/ha
  herbicidal effect on D (Chinese sprangletop), rating 0-5: 4 (Herbicidal rate of 70% or more and less than 90%)
Barnyard grass [2]; 320 g/ha
  herbicidal effect rating, H: barnyard grass: 0 (Herbicidal rate of 5% or less (almost no effect))
Velvetleaf [3]; 320 g/ha
  herbicidal effect on M: velvetleaf: 5 (Herbicidal rate of 90% or more (almost completely withered))
Windgrass [4]; 320 g/ha
  herbicidal effect rating, L: windgrass: 4 (Herbicidal rate of 70% or more and less than 90%)
Barnyard grass [5]; 320 g/ha
  herbicidal effect on H: barnyard grass: 5 (Herbicidal rate of 90% or more (almost completely withered))
Green foxtail [6]; 320 g/ha
  herbicidal effect on G: green foxtail: 5 (Herbicidal rate of 90% or more (almost completely withered))
Persian speedwell [7]; 320 g/ha
  herbicidal effect rating, R: persian speedwell: 1 (Herbicidal rate of 5% or more and less than 20%)
Persian speedwell [8]; 320 g/ha
  herbicidal effect on R: persian speedwell: 5 (Herbicidal rate of 90% or more (almost completely withered))
Italian ryegrass [9]; 320 g/ha
  herbicidal effect on K: Italian ryegrass: 5 (Herbicidal rate of 90% or more (almost completely withered))
Barnyard grass [10]; 320 g/ha
  herbicidal effect on H (barnyard grass), rating 0-5: 5 (Herbicidal rate of 90% or more (almost completely withered))
Chickweed [11]; 320 g/ha
  herbicidal effect on P: chickweed: 5 (Herbicidal rate of 90% or more (almost completely withered))
Blackgrass [12]; 320 g/ha
  herbicidal effect rating, J: blackgrass: 2 (Herbicidal rate of 20% or more and less than 40%)
Southern crabgrass [13]; 320 g/ha
  herbicidal effect on F: southern crabgrass: 5 (Herbicidal rate of 90% or more (almost completely withered))
Chickweed [14]; 320 g/ha
  herbicidal effect rating, P: chickweed: 4 (Herbicidal rate of 70% or more and less than 90%)
Green foxtail [15]; 320 g/ha
  herbicidal effect rating, G: green foxtail: 2 (Herbicidal rate of 20% or more and less than 40%)
Windgrass [16]; 320 g/ha
  herbicidal effect on L: windgrass: 5 (Herbicidal rate of 90% or more (almost completely withered))
Lambsquarters [17]; 320 g/ha
  herbicidal effect rating, O: lambsquarters: 3 (Herbicidal rate of 40% or more and less than 70%)
Lambsquarters [18]; 320 g/ha
  herbicidal effect on O: lambsquarters: 5 (Herbicidal rate of 90% or more (almost completely withered))
Velvetleaf [19]; 320 g/ha
  herbicidal effect rating, M: velvetleaf: 0 (Herbicidal rate of 5% or less (almost no effect))
Blackgrass [20]; 320 g/ha
  herbicidal effect on J: blackgrass: 4 (Herbicidal rate of 70% or more and less than 90%)
Rice flat sedge; 320 g/ha
  herbicidal effect on E (rice flat sedge), rating 0-5: 5 (Herbicidal rate of 90% or more (almost completely withered))
Redroot pigweed [21]; 320 g/ha
  herbicidal effect rating, N: redroot pigweed: 3 (Herbicidal rate of 40% or more and less than 70%)
Southern crabgrass [22]; 320 g/ha
  herbicidal effect rating, F: southern crabgrass: 0 (Herbicidal rate of 5% or less (almost no effect))
Wild oat [23]; 320 g/ha
  herbicidal effect on I: wild oat: 5 (Herbicidal rate of 90% or more (almost completely withered))
Redroot pigweed [24]; 320 g/ha
  herbicidal effect on N: redroot pigweed: 5 (Herbicidal rate of 90% or more (almost completely withered))
Italian ryegrass [25]; 320 g/ha
  herbicidal effect rating, K: Italian ryegrass: 5 (Herbicidal rate of 90% or more (almost completely withered))
